# Like-named read-outs stand apart in the source and are kept apart here. Peptide text beside a SMILES is read from it. * marks the point of attachment. C16 diacid = O=C(O)CCCCCCCCCCCCCCC(=O)*
# What was measured:
# human GIP receptor [1] = target: T1, human GIP receptor (Homo sapiens, UniProt P48546); test: cAMP accumulation assay, antagonism of a GIP-mediated cAMP response (50-80% of max); format: cell-based; details: for Fold change of IC50 versus GIP(5-30)NH2: fold change of IC50 from GIP(5-30)NH2
# T1 construct: host or cells: COS-7, transient transfection (calcium phosphate), cDNA in pCMV-Script
# T1 sequence (P48546 22-466): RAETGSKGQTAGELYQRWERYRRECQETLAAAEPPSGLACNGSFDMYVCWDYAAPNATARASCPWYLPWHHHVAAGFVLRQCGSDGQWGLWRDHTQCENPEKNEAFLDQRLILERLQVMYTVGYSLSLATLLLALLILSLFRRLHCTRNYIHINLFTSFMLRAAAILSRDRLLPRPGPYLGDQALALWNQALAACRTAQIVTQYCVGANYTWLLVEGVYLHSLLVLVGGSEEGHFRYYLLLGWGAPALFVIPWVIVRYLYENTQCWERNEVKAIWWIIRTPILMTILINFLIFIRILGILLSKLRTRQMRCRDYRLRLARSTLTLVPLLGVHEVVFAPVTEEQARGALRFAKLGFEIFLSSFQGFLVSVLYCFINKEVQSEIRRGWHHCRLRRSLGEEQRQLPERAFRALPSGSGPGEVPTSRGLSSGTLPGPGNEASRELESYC
# Method: The day after, the cells were washed twice with Hepes buffered saline (HBS) buffer and incubated with HBS and 1 mM 3-isobutyl-1-methylxanthine (IBMX) for 30 min at 37° C. […] The HitHunter™ cAMP XS assay (DiscoveRx) was carried out according to the manufacturer's instructions.
# human GIP receptor [2] = target: T1, human GIP receptor; test: cAMP accumulation assay, agonism (ligand alone); format: cell-based; details: Table 1; for Emax: COS-7, intrinsic cAMP activity
# human GIP receptor [3] = target: T1, human GIP receptor; test: 125I-human GIP competition binding assay, in the presence and absence of 2% HSA; details: for Fold change HSA (2%)/Casein (0.1%): IC50 (plus HSA)/IC50 (minus HSA); for Binding (+/−HSA) Fold: fold change +HSA/−HSA; for IC50: heterologous competition binding, transiently transfected COS-7 cells expressing the human GIP receptor, read-out: Binding;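 for all read-outs here: nonspecific binding taken as radioligand bound to untransfected cells, IC50 obtained from nonlinear regression fits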
# Method: Transient transfection of the COS-7 cells for cAMP accumulation and competition binding was performed using the calcium phosphate precipitation method with the addition of chloroquine^46-47.
# Transient transfected COS-7 cells expressing the human GIP receptor were seeded in clear 96-well plates the day after transfection using a number of cells/well that obtained 5-10% specific binding of the added radioactive ligand. The following day, cells were assayed by competition binding for 3 h at 4° C. using 15-40 pM 125 I-human GIP as well as increasing concentrations unlabeled ligand in 50 mM Hepes buffer (pH 7.2) in the presence and absence of 2% HSA. After incubation, the cells were washed twice in ice-cold binding buffer (+/−2% HSA) and lysed using 200 mM NaOH with 1% SDS for 30 min. Nonspecific binding was determined as the binding of radioactive ligand to untransfected cells.
# IC50, EC50, and Ki values were determined by nonlinear regression. […] Ki values were based on the formula for one class of binding sites in homologous competition binding studies and the Cheng Prussoffs formula, respectively (DeBlasi et al., 1989). To determine the HSA binding potential, the fold change in affinity (as determined by IC50) was calculated as IC50 (plus HSA)/IC50 (minus HSA).
# [4] = transiently transfected COS-7 cells, Table 1 and text, read-out: cAMP antagonism nM (IC50, antagonistic potency)
# [5] = given as log EC50 (negative sign), read-out: cAMP agonism EC50 (log) (converted)
# [6] = antagonism of GIP-mediated cAMP response, COS-7 cells, read-out: cAMP accumulation IC50
Compound,Fold change of IC50 versus GIP(5-30)NH2 (human GIP receptor [1]),IC50 (human GIP receptor [1]; [4]),Emax (human GIP receptor [2]; COS-7 cells),EC50 (human GIP receptor [2]; [5]),Fold change HSA (2%)/Casein (0.1%) (human GIP receptor [3]),Binding (+/−HSA) Fold (human GIP receptor [3]),Ki (human GIP receptor [3]; presence of 2% HSA),Ability to antagonize the GIP-mediated cAMP response (in words) (human GIP receptor [1]),"EC50 (human GIP receptor [2]; COS-7 cells, read-out: cAMP agonism nM (EC50))",IC50 (human GIP receptor [3]),"Fold change in affinity, IC50 (plus HSA)/IC50 (minus HSA) (human GIP receptor [3]; presence vs absence of 2% HSA, proxy for albumin binding)",IC50 (human GIP receptor [1]; [6]),Ki (human GIP receptor [3]; absence of HSA)
"CC[C@H](C)[C@H](NC(=O)[C@H](CO)NC(=O)[C@H](Cc1ccc(O)cc1)NC(=O)[C@H](CC(=O)O)NC(=O)[C@H](CO)NC(=O)[C@@H](NC(=O)[C@H](Cc1ccccc1)NC(=O)[C@@H](N)[C@@H](C)O)[C@@H](C)CC)C(=O)N[C@@H](C)C(=O)N[C@@H](CCSC)C(=O)N[C@@H](CC(=O)O)C(=O)N[C@@H](CCCCN)C(=O)N[C@H](C(=O)N[C@@H](Cc1c[nH]cn1)C(=O)N[C@@H](CCCCNC(=O)CCCCCCCCCCCCCCC(=O)O)C(=O)N[C@@H](CCC(N)=O)C(=O)N[C@@H](CC(=O)O)C(=O)N[C@@H](Cc1ccccc1)C(=O)N[C@H](C(=O)N[C@@H](CC(N)=O)C(=O)N[C@@H](Cc1c[nH]c2ccccc12)C(=O)N[C@@H](CC(C)C)C(=O)N[C@@H](CC(C)C)C(=O)N[C@@H](C)C(=O)N[C@@H](CCC(N)=O)C(=O)N[C@@H](CCCCN)C(N)=O)C(C)C)[C@@H](C)CC [AT179, [hGIP(5-30)NH2[Q19K]-C16diacid/19]] (H-TFISDYSIAMDKIHK(C16 diacid)QDFVNWLLAQK-NH2; N-terminus assumed)",2.1,89 nM,32%,100 nM,3.6,6.3,2380 nM,,,,,,
"CC[C@H](C)[C@H](NC(=O)[C@H](CO)NC(=O)[C@H](Cc1ccc(O)cc1)NC(=O)[C@H](CC(=O)O)NC(=O)[C@H](CO)NC(=O)[C@@H](NC(=O)[C@H](Cc1ccccc1)NC(=O)[C@@H](N)[C@@H](C)O)[C@@H](C)CC)C(=O)N[C@@H](C)C(=O)N[C@@H](CCSC)C(=O)N[C@@H](CC(=O)O)C(=O)N[C@@H](CCCCN)C(=O)N[C@H](C(=O)N[C@@H](Cc1c[nH]cn1)C(=O)N[C@@H](CCC(N)=O)C(=O)N[C@@H](CCCCNC(=O)CCCCCCCCCCCCCCC(=O)O)C(=O)N[C@@H](CC(=O)O)C(=O)N[C@@H](Cc1ccccc1)C(=O)N[C@H](C(=O)N[C@@H](CC(N)=O)C(=O)N[C@@H](Cc1c[nH]c2ccccc12)C(=O)N[C@@H](CC(C)C)C(=O)N[C@@H](CC(C)C)C(=O)N[C@@H](C)C(=O)N[C@@H](CCC(N)=O)C(=O)N[C@@H](CCCCN)C(N)=O)C(C)C)[C@@H](C)CC [AT180, [hGIP(5-30)NH2[Q20K]-C16diacid/20]] (H-TFISDYSIAMDKIHQK(C16 diacid)DFVNWLLAQK-NH2; N-terminus assumed)",1.7,37 nM,0%,,3.7,6.4,,,,,,,
"CC[C@H](C)[C@H](NC(=O)[C@H](CO)NC(=O)[C@H](Cc1ccc(O)cc1)NC(=O)[C@H](CC(=O)O)NC(=O)[C@H](CO)NC(=O)[C@@H](NC(=O)[C@H](Cc1ccccc1)NC(=O)[C@@H](N)[C@@H](C)O)[C@@H](C)CC)C(=O)N[C@@H](C)C(=O)N[C@@H](CCSC)C(=O)N[C@@H](CC(=O)O)C(=O)N[C@@H](CCCCN)C(=O)N[C@H](C(=O)N[C@@H](Cc1c[nH]cn1)C(=O)N[C@@H](CCC(N)=O)C(=O)N[C@@H](CCC(N)=O)C(=O)N[C@@H](CCCCNC(=O)CCCCCCCCCCCCCCC(=O)O)C(=O)N[C@@H](Cc1ccccc1)C(=O)N[C@H](C(=O)N[C@@H](CC(N)=O)C(=O)N[C@@H](Cc1c[nH]c2ccccc12)C(=O)N[C@@H](CC(C)C)C(=O)N[C@@H](CC(C)C)C(=O)N[C@@H](C)C(=O)N[C@@H](CCC(N)=O)C(=O)N[C@@H](CCCCN)C(N)=O)C(C)C)[C@@H](C)CC [AT181, [hGIP(5-30)NH2[D21K]-C16diacid/21]] (H-TFISDYSIAMDKIHQQK(C16 diacid)FVNWLLAQK-NH2; N-terminus assumed)",0.5,16 nM,9%,,5.2,3.6,,highest antagonistic potencies,2 nM,48 nM,5.2 fold,,
"CC[C@H](C)[C@H](NC(=O)[C@H](CO)NC(=O)[C@H](Cc1ccc(O)cc1)NC(=O)[C@H](CC(=O)O)NC(=O)[C@H](CO)NC(=O)[C@@H](NC(=O)[C@H](Cc1ccccc1)NC(=O)[C@@H](N)[C@@H](C)O)[C@@H](C)CC)C(=O)N[C@@H](C)C(=O)N[C@@H](CCSC)C(=O)N[C@@H](CC(=O)O)C(=O)N[C@@H](CCCCN)C(=O)N[C@H](C(=O)N[C@@H](Cc1c[nH]cn1)C(=O)N[C@@H](CCC(N)=O)C(=O)N[C@@H](CCC(N)=O)C(=O)N[C@@H](CC(=O)O)C(=O)N[C@@H](CCCCNC(=O)CCCCCCCCCCCCCCC(=O)O)C(=O)N[C@H](C(=O)N[C@@H](CC(N)=O)C(=O)N[C@@H](Cc1c[nH]c2ccccc12)C(=O)N[C@@H](CC(C)C)C(=O)N[C@@H](CC(C)C)C(=O)N[C@@H](C)C(=O)N[C@@H](CCC(N)=O)C(=O)N[C@@H](CCCCN)C(N)=O)C(C)C)[C@@H](C)CC [AT182, [hGIP(5-30)NH2[F22K]-C16diacid/22]] (H-TFISDYSIAMDKIHQQDK(C16 diacid)VNWLLAQK-NH2; N-terminus assumed)",21.9,634 nM,13%,1000 nM,3.0,1.4,,,,962 nM,,603 nM,
"CC[C@H](C)[C@H](NC(=O)[C@H](CO)NC(=O)[C@H](Cc1ccc(O)cc1)NC(=O)[C@H](CC(=O)O)NC(=O)[C@H](CO)NC(=O)[C@@H](NC(=O)[C@H](Cc1ccccc1)NC(=O)[C@@H](N)[C@@H](C)O)[C@@H](C)CC)C(=O)N[C@@H](C)C(=O)N[C@@H](CCSC)C(=O)N[C@@H](CC(=O)O)C(=O)N[C@@H](CCCCN)C(=O)N[C@H](C(=O)N[C@@H](Cc1c[nH]cn1)C(=O)N[C@@H](CCC(N)=O)C(=O)N[C@@H](CCC(N)=O)C(=O)N[C@@H](CC(=O)O)C(=O)N[C@@H](Cc1ccccc1)C(=O)N[C@@H](CCCCNC(=O)CCCCCCCCCCCCCCC(=O)O)C(=O)N[C@@H](CC(N)=O)C(=O)N[C@@H](Cc1c[nH]c2ccccc12)C(=O)N[C@@H](CC(C)C)C(=O)N[C@@H](CC(C)C)C(=O)N[C@@H](C)C(=O)N[C@@H](CCC(N)=O)C(=O)N[C@@H](CCCCN)C(N)=O)[C@@H](C)CC [AT183, [hGIP(5-30)NH2[V23K]-C16diacid/23]] (H-TFISDYSIAMDKIHQQDFK(C16 diacid)NWLLAQK-NH2; N-terminus assumed)",55.0,,0%,,1.8,4.4,,,,,,,
"CC[C@H](C)[C@H](NC(=O)[C@H](CO)NC(=O)[C@H](Cc1ccc(O)cc1)NC(=O)[C@H](CC(=O)O)NC(=O)[C@H](CO)NC(=O)[C@@H](NC(=O)[C@H](Cc1ccccc1)NC(=O)[C@@H](N)[C@@H](C)O)[C@@H](C)CC)C(=O)N[C@@H](C)C(=O)N[C@@H](CCSC)C(=O)N[C@@H](CC(=O)O)C(=O)N[C@@H](CCCCN)C(=O)N[C@H](C(=O)N[C@@H](Cc1c[nH]cn1)C(=O)N[C@@H](CCC(N)=O)C(=O)N[C@@H](CCC(N)=O)C(=O)N[C@@H](CC(=O)O)C(=O)N[C@@H](Cc1ccccc1)C(=O)N[C@H](C(=O)N[C@@H](CCCCNC(=O)CCCCCCCCCCCCCCC(=O)O)C(=O)N[C@@H](Cc1c[nH]c2ccccc12)C(=O)N[C@@H](CC(C)C)C(=O)N[C@@H](CC(C)C)C(=O)N[C@@H](C)C(=O)N[C@@H](CCC(N)=O)C(=O)N[C@@H](CCCCN)C(N)=O)C(C)C)[C@@H](C)CC [AT184, [hGIP(5-30)NH2[N24K]-C16diacid/24]] (H-TFISDYSIAMDKIHQQDFVK(C16 diacid)WLLAQK-NH2; N-terminus assumed)",3.9,,0%,,1.6,3.9,,,,,,,224 nM
"CC[C@H](C)[C@H](NC(=O)[C@H](CO)NC(=O)[C@H](Cc1ccc(O)cc1)NC(=O)[C@H](CC(=O)O)NC(=O)[C@H](CO)NC(=O)[C@@H](NC(=O)[C@H](Cc1ccccc1)NC(=O)[C@@H](N)[C@@H](C)O)[C@@H](C)CC)C(=O)N[C@@H](C)C(=O)N[C@@H](CCSC)C(=O)N[C@@H](CC(=O)O)C(=O)N[C@@H](CCCCN)C(=O)N[C@H](C(=O)N[C@@H](Cc1c[nH]cn1)C(=O)N[C@@H](CCC(N)=O)C(=O)N[C@@H](CCC(N)=O)C(=O)N[C@@H](CC(=O)O)C(=O)N[C@@H](Cc1ccccc1)C(=O)N[C@H](C(=O)N[C@@H](CC(N)=O)C(=O)N[C@@H](CCCCNC(=O)CCCCCCCCCCCCCCC(=O)O)C(=O)N[C@@H](CC(C)C)C(=O)N[C@@H](CC(C)C)C(=O)N[C@@H](C)C(=O)N[C@@H](CCC(N)=O)C(=O)N[C@@H](CCCCN)C(N)=O)C(C)C)[C@@H](C)CC [AT185, [hGIP(5-30)NH2[W25K]-C16diacid/25]] (H-TFISDYSIAMDKIHQQDFVNK(C16 diacid)LLAQK-NH2; N-terminus assumed)",2.4,44 nM,18%,100 nM,4.7,5.0,337 nM,,,,,66.1 nM,

# Reference: US11572399B2, “Long-acting GIP peptide analogues” (University of Copenhagen, priority 2017, dated 2023)
